Patent US8828987B2, “Pyridine amide derivatives as EP4 receptor antagonists” (Rottapharm Biotech S.R.L., priority 2010, dated 2014)

Key:
[1] = molecular target: T1, human EP4 receptor (Homo sapiens, UniProt P35408); assay: [3H]-Prostaglandin E2 membrane binding assay (human EP4/HEK293 transfectant membranes); details: [3H]-PGE2 1 nM, hEP4/HEK293 membranes; Ki by Cheng-Prusoff; read-out: Binding pKi (converted)
T1 construct: expressed in transfected cells; membrane fraction used
Excerpt: (§1) Stable Expression of Human EP4 Receptors in the Human Embryonic Kidney (HEK293) Cell Line
(§2) The cDNA clone of human EP4 receptor (NM_000958.2) was obtained from Invitrogen™: Ultimate™ ORF Clone Collection—Clone ID IOH46525. The coding sequence was subcloned in expression vector pcDNA™6.2/V5-DEST by Gateway technology (Invitrogen™).
(§3) Human embryonic kidney cells (HEK-293) were stably transfected with expression vector for human EP4 receptor in according to the method described in FuGENE®6 Transfection Reagent's manual (Roche Applied Science®).
(§4) Preparation of Membrane Fraction:
(§5) The EP4 transfected cells were grown in Dulbecco's modified Eagle's medium containing 10% fetal bovine serum and 10 μg/ml Blasticidin S HCl (selection medium) at 37° C. in a humidified atmosphere of 5% CO2 in air.
(§6) For the membrane preparation, cells in flask were harvested by hypotonical/mechanical lysis with chilled (4° C.) TE buffer (5 mM TRIS, 5 mM etylenediamine tetra-acetic acid (EDTA), pH 7.4).
(§7) Cells were detached and lysed with 10 ml of hypotonic lysis buffer and by scraping. The cell lysate was vortexed for 30 sec and centrifuged at 40000×g at 4° C. for 22 min.
a) Membrane Binding Assay[3H]-Prostaglandin E2
The membrane pellet was resuspended in the same buffer (5 mM TRIS, 5 mM ethylenediamine tetra-acetic acid (EDTA), pH 7.4), and protein concentration was determined by Bradford method (Bio-Bad® assay).
This membrane preparation was stored at −80° C. freezer until use for binding assay.
([^3H]-PGE2) membranes binding assays toward hEP4 receptors (human EP4/HEK293 transfectant, see above) and hEP2 receptors (human EP2/HEK293 transfectant, purchased from PerkinElmer Inc) were performed in 10 mM MES-KOH buffer pH6, containing 10 mM MgCl2 and 1 mM CaCl2 for EP4 binding assay or 50 mM Tris-Cl, BSA 0.5% for EP2 binding assay (according to supplier indication).
Ten microgram of protein from membrane fractions were incubated in a total volume of 0.1 ml (EP4) or 0.2 ml (EP2) with 1 nM (EP4) or 3 nM (EP2) [^3H]-PGE2 (PerkinElmer Inc, 171 Ci/mmol). In both assays to determine the total binding or non specific binding, 1% DMSO or 1 μM prostaglandin E2 (EP4) or 100 μM (EP2) were added to reaction mixtures, respectively. Incubation was conducted in a polypropylene 96 multiwell for 90 min (EP4) or 60 min (EP2) at room temperature prior to separation of the bound and free radioligand by vacuum manifold rapid filtration on glass fiber filters (Unifilter GFB96, PerkinElmer Inc) pre-soaked in 0.3% polyethyleneimine. Filters were washed with ice cold buffer pH 7.4 (50 mM HEPES, NaCl 500 mM, BSA 0.1% for EP4 binding assay or 50 mM Tris-Cl for EP2 binding assays) and the residual [^3H]-PGE2 binding determined by solid scintillation counter (TopCount, PerkinElmer Inc).
The affinity (Ki) of each compound was calculated according to the Cheng-Prousoff equation: Ki=IC50/(1+([C]/Kd)). Results were expressed as pKi (−log 10 Ki (M)
Compounds of example 1 to 82 were tested according to method of example 83a in a final concentration range from 1 nM to 1 μM.

[2] = molecular target: T1, human EP4 receptor; assay: cAMP assay (AlphaScreen) on human EP4 membrane of transfected cells, antagonism of PGE2; assay type: biochemical; details: HEK293 hEP4 cell membrane stimulated with PGE2 3 nM; read-out: functional IC50
Excerpt: as §1, §2, §3, §4, §5, §6, §7
b) cAMP Assay on Human EP4 Membrane of Transfected Cells.
The assay is based on the competition between endogenous cAMP and exogenously added biotinylated cAMP. The capture of cAMP is achieved by using a specific antibody conjugated to […] beads.
Cell membranes prepared as described above, were resuspended in 1 ml stimulation buffer (HBSS 1×+BSA 0.1%+IBMX 0.5 mM+HEPES 5 mM+MgCl2 10 mM+GTP 1 nM+GDP 10 μM+ATP 100 μM−pH 7.4). Cell membranes were dispensed into white 384-well microplates at final concentration of 1 μg/well and used for the determination of cAMP with the alphascreen cAMP functional assay (EnVision—PerkinElmer). Cell membrane/anti-cAMP Acceptor beads mix (5 μl) and a mixture of analysed compounds (dissolved in 100% DMSO to a final maximal concentration of 0.01% DMSO)/PGE2 (5 μl) were incubated at room temperature (22-23° C.) for 30 min in the dark. The Biotinylated-cAMP and donor beads (15 μl) were dispensed into each well to start the competition reaction. After 1 h incubation RT (22-23° C.) in the dark the plate was read using EnVision platform to determine the cAMP level (excitation: 680 nm; emission: 520,620 nm).
cAMP standard curve (concentration range from 1×10-6 to 1×10-11 M in. log intervals) with a negative control (no cAMP) a positive control:forskolin 10 μM
Antagonism studies were performed stimulating HEK293 cell membrane with PGE2 3 nM. The AlphaScreen signal is plotted as a function of log concentration of cAMP and functional IC50 is determined. IC50 value is calculated by linear regression.
Some compounds were tested according to method of example 83b.

T1 sequence (P35408 whole entry): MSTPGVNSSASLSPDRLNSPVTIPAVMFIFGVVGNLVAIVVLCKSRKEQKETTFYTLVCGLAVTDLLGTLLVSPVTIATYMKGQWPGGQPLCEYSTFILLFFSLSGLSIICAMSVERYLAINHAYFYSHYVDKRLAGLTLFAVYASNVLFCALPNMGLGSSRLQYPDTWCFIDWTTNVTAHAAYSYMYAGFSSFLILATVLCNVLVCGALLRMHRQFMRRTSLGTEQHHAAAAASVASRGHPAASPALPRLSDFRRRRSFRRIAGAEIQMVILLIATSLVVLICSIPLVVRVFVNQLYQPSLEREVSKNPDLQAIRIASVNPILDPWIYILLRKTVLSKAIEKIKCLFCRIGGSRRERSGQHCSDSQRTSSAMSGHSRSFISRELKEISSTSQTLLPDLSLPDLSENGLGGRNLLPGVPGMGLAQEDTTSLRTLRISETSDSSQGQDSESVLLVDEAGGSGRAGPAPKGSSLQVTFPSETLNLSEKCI

Row | SMILES | Ki [1] [nM] | IC50 [2] [nM]
1 | Cc1cc(F)ccc1N(C)C1CN(c2ncc(Cl)cc2C(=O)NC2(c3ccc(C(=O)O)cc3)CC2)C1 [E 37, 4-(1-(5-chloro-2-(3-((4-fluoro-2-methylphenyl)(methyl)amino)azetidin-1-yl)nicotinamido)cyclopropyl)benzoic acid] | 12.6 | 31
2 | O=C(O)c1ccc(C2(NC(=O)c3cc(C(F)(F)F)cnc3N3CC(Oc4ccc(F)c(F)c4)C3)CC2)cc1 [E 45, 4-(1-(2-(3-(3,4-difluorophenoxy)azetidin-1-yl)-5-(trifluoromethyl)nicotinamido)cyclopropyl)benzoic acid] | 3.16 | 10
3 | O=C(O)c1ccc(C2(NC(=O)c3cc(C(F)(F)F)cnc3N3CC(Oc4cccc(C(F)(F)F)n4)C3)CC2)cc1 [E 47, 4-(1-(5-(trifluoromethyl)-2-(3-((6-(trifluoromethyl)pyridin-2-yl)oxy)azetidin-1-yl)nicotinamido)cyclopropyl)benzoic acid] | 63.1 | 228
4 | O=C(O)c1ccc(C2(NC(=O)c3cc(Cl)cnc3N3CCCC3c3ccccc3)CC2)cc1 (single isomer, unassigned) [E 1, 4-(1-(5-chloro-2-(2-phenylpyrrolidin-1-yl)nicotinamido)cyclopropyl)benzoic acid] | 398 | 235
5 | O=C(O)c1ccc(C2(NC(=O)c3cc(Cl)cnc3N3CC(Oc4ccc(F)c(F)c4)C3)CC2)cc1 [E 20, 4-(1-(5-chloro-2-(3-(3,4-difluorophenoxy)azetidin-1-yl)nicotinamido)cyclopropyl)benzoic acid] | 10 | 70
6 | O=C(O)c1ccc(C2(NC(=O)c3cc(Cl)cnc3N3CC(Oc4cccc(OC(F)(F)F)c4)C3)CC2)cc1 [E 18, 4-(1-(5-chloro-2-(3-(3-(trifluoromethoxy)phenoxy)azetidin-1-yl)nicotinamido)cyclopropyl)benzoic acid] | 12.6 | 22
7 | O=C(O)c1ccc(C2(NC(=O)c3cc(C(F)(F)F)cnc3N3CC(Oc4cccc(OC(F)(F)F)c4)C3)CC2)cc1 [E 43, 4-(1-(2-(3-(3-(trifluoromethoxy)phenoxy)azetidin-1-yl)-5-(trifluoromethyl)nicotinamido)cyclopropyl)benzoic acid] | 3.16 | 38
8 | O=C(NC1(c2ccc(-c3nnn[nH]3)cc2)CC1)c1cc(Cl)cnc1N1CC(Oc2cccc(F)c2)C1 [E 82, N-(1-(4-(1H-tetrazol-5-yl)phenyl)cyclopropyl)-5-chloro-2-(3-(3-fluorophenoxy)azetidin-1-yl)nicotinamide] | 5.01 | 27
9 | O=C(O)c1ccc(C2(NC(=O)c3cc(F)cnc3N3CC(Oc4cccc(OC(F)(F)F)c4)C3)CC2)cc1 [E 55, 4-(1-(5-fluoro-2-(3-(3-(trifluoromethoxy)phenoxy)azetidin-1-yl)nicotinamido)cyclopropyl)benzoic acid] | 31.6 | 126
10 | O=C(O)c1ccc(C2(NC(=O)c3cc(Cl)cnc3N3CC[C@H](Oc4cccc(F)c4)C3)CC2)cc1 [E 80, (S)-4-(1-(5-chloro-2-(3-(3-fluorophenoxy)pyrrolidin-1-yl)nicotinamido)cyclopropyl)benzoic acid] | 39.8 | 99
11 | O=C(O)c1ccc(C2(NC(=O)c3cc(Cl)cnc3N3CC(Nc4ccc(F)cc4)C3)CC2)cc1 [E 33, 4-(1-(5-chloro-2-(3-((4-fluorophenyl)amino)azetidin-1-yl)nicotinamido)cyclopropyl)benzoic acid] | 6.31 | 44.5
12 | O=C(O)c1ccc(C2(NC(=O)c3cc(C(F)(F)F)cnc3N3CC(Nc4cccc(F)c4)C3)CC2)cc1 [E 49, 4-(1-(2-(3-((3-fluorophenyl)amino)azetidin-1-yl)-5-(trifluoromethyl)nicotinamido)cyclopropyl)benzoic acid] | 25.1 | 69
13 | O=C(O)c1ccc(C2(NC(=O)c3cc(Cl)cnc3N3CCC(Oc4cccc(C(F)(F)F)c4)C3)CC2)cc1 (single isomer, unassigned) [E 64, 4-(1-(5-chloro-2-(3-(3-(trifluoromethyl)phenoxy)pyrrolidin-1-yl)nicotinamido)cyclopropyl)benzoic acid] | 31.6 | 99
14 | C[C@H](NC(=O)c1cc(Cl)cnc1N1CC(Oc2ccc(F)cc2)C1)c1ccc(C(=O)O)cc1 [E 11, (S)-4-(1-(5-chloro-2-(3-(4-fluorophenoxy)azetidin-1-yl)nicotinamido)ethyl)benzoic acid] | 100 | 386
15 | O=C(O)c1ccc(C2(NC(=O)c3cc(Cl)cnc3N3CCC(Oc4cccc(C(F)(F)F)c4)C3)CC2)cc1 (single isomer, unassigned) [E 65, 4-(1-(5-chloro-2-(3-(3-(trifluoromethyl)phenoxy)pyrrolidin-1-yl)nicotinamido)cyclopropyl)benzoic acid] | 39.8 | 65
16 | O=C(O)c1ccc(C2(NC(=O)c3cc(C(F)(F)F)cnc3N3CC(Oc4ccc(F)cc4)C3)CC2)cc1 [E 39, 4-(1-(2-(3-(4-fluorophenoxy)azetidin-1-yl)-5-(trifluoromethyl)nicotinamido)cyclopropyl)benzoic acid] | 7.94 | 72
17 | O=C(O)c1ccc(C2(NC(=O)c3cc(Cl)cnc3N3CCC(Oc4ccc(F)cc4)C3)CC2)cc1 (single isomer, unassigned) [E 66, 4-(1-(5-chloro-2-(3-(4-fluorophenoxy)pyrrolidin-1-yl)nicotinamido)cyclopropyl)benzoic acid] | 39.8 | 43
18 | O=C(O)c1ccc(C2(NC(=O)c3cc(C(F)(F)F)cnc3N3CC(Oc4ccc(F)c(C(F)(F)F)c4)C3)CC2)cc1 [E 42, 4-(1-(2-(3-(4-fluoro-3-(trifluoromethyl)phenoxy)azetidin-1-yl)-5-(trifluoromethyl)nicotinamido)cyclopropyl)benzoic acid] | 3.16 | 35
19 | C[C@H](NC(=O)c1cc(Cl)cnc1N1CC(Oc2cccc(F)c2)C1)c1ccc(C(=O)O)cc1 [E 12, (S)-4-(1-(5-chloro-2-(3-(3-fluorophenoxy)azetidin-1-yl)nicotinamido)ethyl)benzoic acid] | 15.8 | 102
20 | O=C(O)c1ccc(C2(NC(=O)c3cc(Cl)cnc3N3CC(O)(c4ccc(F)cc4)C3)CC2)cc1 [E 28, 4-(1-(5-chloro-2-(3-(4-fluorophenyl)-3-hydroxyazetidin-1-yl)nicotinamido)cyclopropyl)benzoic acid] | 79.4 | 197
